Reference: patent US6583265B1, “Cyclosporins” (C-Chem AG, priority 1998, dated 2003)
Peptide text beside a SMILES is read from it.

How the values were obtained:
[1] = target: recombinant human cyclophilin 18 (Homo sapiens, UniProt P62937); assay: Test for inhibition of cyclophilin (chymotrypsin-coupled hydrolysis of Succ-Ala-Phe-Pro-Phe-4-nitroanilide); type: biochemical; settings: recombinant human cyclophilin 18, 10 °C, HEPES buffer, 5 minutes preincubation, substrate 50 μM
Procedure: The test described by G. Fischer et al., Biomed. Biochim. Acta, Vol. 43, 1101-1111 (1984) was used. Specifically, 5 μL of a 1 μM solution of recombinant human cyclophilin 18 was dissolved, at 10,0±0.3° C. in 1250 μL HEPES buffer; α-chymotrypsin was added to give a final concentration of 30 μM. […] After 5 minutes preincubation, Succ-Ala-Phe-Pro-Phe-4-nitroanilide (SEQ ID No. 1) was added to give a final concentration of 50 μM. The hydrolysis of the substrate was measured spectrophotometrically at […].

cyclophilin = cyclophilin (Homo sapiens, UniProt P62937); assay: Test for cyclophilin binding (Fliri); settings: ratio to cyclosporin A
Source text: To measure the affinity and inhibition of test compounds for cyclophilin, the test described by H. Fliri in “Antibiotics and Antiviral compounds”, 1993, Verlag Chemie, K.Krohn, H. A. Kirst, and H. Maag, eds., p 229-240 was used.

[2] = test system: T. gondii tachyzoites, strain RH; type: cell-based, Toxoplasma gondii; settings: 72 h
Procedure: Using microliter plates, T. gondii tachyzoites, strain RH were co-incubated with fibroblasts (MCR5, Bio-Merieux) for 72 hrs in the presence and absence of test compounds T. gondii was quantified using an ELISA. The activities of the test compounds are as follows: […]

[3] = Antiinflammatory activity, adjuvent arthritis test (Pearson); type: in vivo; settings: oral, solutions in olive oil and tween 80
Procedure: The antiinflammatory activity of test compounds was determined by the adjuvent arthritis test described by Pearson, “Arthr. Rheum”, 1959, Vol. 2., 440. Test compounds were administered orally as solutions in olive oil and tween 80.

Chain of recombinant human cyclophilin 18 (P62937 whole entry): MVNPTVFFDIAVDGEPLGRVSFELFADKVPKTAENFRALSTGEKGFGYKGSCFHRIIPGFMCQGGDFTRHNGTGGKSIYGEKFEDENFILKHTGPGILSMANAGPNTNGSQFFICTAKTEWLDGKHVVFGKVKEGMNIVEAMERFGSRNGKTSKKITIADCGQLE
Chain of cyclophilin (P62937 whole entry): as above

SMILES	IC50 [1]	Relative IC50, i.e. IC50 (cyclosporin A)/IC50 (test compound) (cyclophilin)	Activity against T. gondii (IC50) [2]	ED50, dose effective in reducing the joint swelling by 50% [3]
C/C=C/C[C@@H](C)[C@@H](O)[C@H]1C(=O)N[C@@H](CC)C(=O)N(C)[C@H](OC(C)(C)C)C(=O)N(C)[C@@H](CC(C)C)C(=O)N[C@@H](C(C)C)C(=O)N(C)[C@@H](CC(C)C)C(=O)N[C@@H](C)C(=O)N[C@H](C)C(=O)N(C)[C@@H](CC(C)C)C(=O)N(C)[C@@H](CC(C)C)C(=O)N(C)[C@@H](C(C)C)C(=O)N1C [Example 17, [D-Sar-(tert.-butoxy)^3]-cyclosporin] (HELM PEPTIDE1{[C/C=C/C[C@@H](C)[C@@H](O)[C@@H](C(=O)[*:2])N(C)[*:1]].[Abu].[CN([C@H](OC(C)(C)C)C(=O)[*:2])[*:1]].[meL].V.[meL].A.[dA].[meL].[meL].[meV]}$PEPTIDE1,PEPTIDE1,1:R1-11:R2$$$V2.0)	18.9 ± 1.03 nM	–	–	–
C/C=C/C[C@@H](C)[C@@H](O)[C@H]1C(=O)N[C@@H](CC)C(=O)N(C)C(OCC)C(=O)N(C)[C@@H](CC(C)C)C(=O)N[C@@H](C(C)C)C(=O)N(C)[C@@H](CC(C)C)C(=O)N[C@@H](C)C(=O)N[C@H](C)C(=O)N(C)[C@@H](CC(C)C)C(=O)N(C)[C@@H](CC(C)C)C(=O)N(C)[C@@H](C(C)C)C(=O)N1C (some centres unmarked) [Example 15, 3-Ethoxycyclosporin] (HELM PEPTIDE1{[C/C=C/C[C@@H](C)[C@@H](O)[C@@H](C(=O)[*:2])N(C)[*:1]].[Abu].[CCOC(C(=O)[*:2])N(C)[*:1]].[meL].V.[meL].A.[dA].[meL].[meL].[meV]}$PEPTIDE1,PEPTIDE1,1:R1-11:R2$$$V2.0)	–	2	0.6 µg/mL	15 mg/kg
C=CCO[C@@H]1C(=O)N(C)[C@@H](CC(C)C)C(=O)N[C@@H](C(C)C)C(=O)N(C)[C@@H](CC(C)C)C(=O)N[C@@H](C)C(=O)N[C@H](C)C(=O)N(C)[C@@H](CC(C)C)C(=O)N(C)[C@@H](CC(C)C)C(=O)N(C)[C@@H](C(C)C)C(=O)N(C)[C@@H]([C@H](O)[C@H](C)C/C=C/C)C(=O)N[C@@H](CC)C(=O)N1C [Example 18, [D-Sar-(allyloxy)^3]-cyclosporin] (HELM PEPTIDE1{[C/C=C/C[C@@H](C)[C@@H](O)[C@@H](C(=O)[*:2])N(C)[*:1]].[Abu].[C=CCO[C@H](C(=O)[*:2])N(C)[*:1]].[meL].V.[meL].A.[dA].[meL].[meL].[meV]}$PEPTIDE1,PEPTIDE1,1:R1-11:R2$$$V2.0)	10.2 ± 2.21 nM	–	–	–
